From US10934523B2, “Method for culture of stem cell” (RIKEN, priority 2008, dated 2021)
Entries after “also recorded” stand apart in the source; their conditions may differ. Where two headings read alike, the source gives them in different places.

Assays:
Human ES cells (KhES #1) = experiment: Hypothalamus gene marker expression in human ES cells by modified SFEBq/gfCDM (quantitative PCR, day 31); assay type: cell-based; settings: insulin 7 μg/ml, 31 days
Rx-GFP ES cells [1] = experiment: Differentiation into hypothalamic progenitor cells by SFEBq/gfCDM, percentage of Rx-GFP+ cells by FACS on day 7; assay type: cell-based, mouse; settings: for Rx-GFP positivity rate recovered in the presence of insulin: LY294002 5 μM, Akt inhibitor VIII 2 μM
Experimental: Differentiation culture was performed under the same culturing conditions as Example 13 for 7 days. For analyzing the differentiated cells, an antibody against the Rx protein, which is a hypothalamic and retinal progenitor cell marker, was used. In hypothalamic progenitor cells, in addition to Rx, a protein called nestin is expressed, whereas in retinal progenitor cells, only Rx is expressed but nestin is not expressed, so that hypothalamic progenitor cells were identified by a fluorescent immunostaining method with the co-expression of Rx and nestin as an index.
Furthermore, EB5 cells wherein GFP was knocked in at the Rx gene locus (hereinafter, Rx-GFP ES cells) were prepared, and the expression of Rx-GFP was also analyzed by FACS.
(§1) Differentiation culture was performed under the same culturing conditions as Example 14 for 7 days, and the influence of the addition of insulin to the medium on the differentiation of hypothalamic progenitor cells from ES cells was analyzed by FACS using Rx-GFP ES cells. The intracellular signal transduction of insulin is involved by roughly two pathways (MAPK pathway and PI3K-Akt pathway). […] LY294002, Akt inhibitor VIII, PD98059 or DMSO (vehicle control) was added on day 2 of cultivation.

[2] = system: aggregate masses derived from a mouse ES cell; experiment: Ca++ imaging (fluo4-AM) of cerebral neurons produced by the SFEBq method; assay type: cell-based
Experimental: To confirm the activities and network formation of cerebral neurons produced by the SFEBq method, an analysis was performed by a Ca^++ imaging method using fluo4-AM. The method of examination was as described in the literature (Ikegaya et al, 2005, Neurosci. Res., 52, 132-138).
Aggregate masses derived from a mouse ES cell cultured by the method described in Example 1 for 18 days were further cultured on the Transwell culture insert (Corning) using a DMEM/F12 medium supplemented with N2 for 7 days (FIG. 3A, view A). Ca^++ imaging was performed at room temperature using an artificial cerebrospinal fluid.

Rx-GFP ES cells [3] = experiment: Dorsal/ventral hypothalamic marker expression in Rx-GFP-positive re-aggregate masses (fluorescent immunostaining, day 13); assay type: cell-based, mouse
Experimental: The cells of each fraction were dispensed to a non-cell-adhesive 96-well culture plate at 2500-5000 cells per well, and further cultured using a DMEM/F12 medium supplemented with 7 g/L glucose, 10% KSR and penicillin/streptomycin for 3 days. […] Three days later, half the medium was replaced with a DFNB medium (a DMEM/F12 supplemented with 7 g/l of glucose, 1×N2 supplement and 1×B27 supplement) supplemented with 10 ng/ml of CNTF, and the cells were further cultured for 3 days.
After cultivation for a total of 13 days, the re-aggregate masses were prepared as frozen sections, and the properties of the differentiated cells were analyzed by a fluorescent immunostaining method. For evaluating the effect of Shh, 30 nM Shh was added from 4 days after the start of cultivation.

Bf1/Venus-mES cells [4] = experiment: Layer-specific neuron differentiation of FACS-sorted, re-aggregated SFEBq cerebral progenitors after Notch inhibition (fluorescent immunostaining); assay type: cell-based, mouse; settings: further 6 days culture
Experimental: After Bf1/Venus-mES cells were cultured for differentiation for different lengths of periods (9 days or 12 days), the resulting Venus-positive cells were separated by FACS, and rapid re-aggregation (5000 cells/well) was performed using a non-cell-adhesive 96-well culture plate. Starting on the following day, rapid induction of differentiation into neurons was performed by a treatment with the Notch inhibitor DAPT (10 μM; known to promote neuron differentiation; Nelson et al, 2007); after further differentiation culture for 6 days, layer-specific markers were analyzed by a fluorescent immunostaining method (FIG. 6, view A).

[5] = system: Mouse ES cells (EB5 and Sox1-GFP ES cells); experiment: Nerve differentiation of mouse ES cells by the SFEBq/gfCDM method; assay type: cell-based; settings: 15 μg/ml in differentiation medium
Experimental: To induce the differentiation of nerves by suspension culture, ES cells were mono-dispersed using 0.25% trypsin-EDTA (Invitrogen), suspended in 150 μl of a differentiation medium to obtain a cell density of 3000 cells per well on a non-cell-adhesive 96-well culture plate (Lipidure-Coat, NOF Corp.), and incubated at 37° C., 5% CO2 for 5 days.
The differentiation medium used was Iscove's Modified Dulbecco's Medium (IMDM)/Hams F12 1:1 (Invitrogen) supplemented with 1× Chemically-defined lipid concentrate (Invitrogen), monothioglycerol (450 μM; Sigma) and bovine serum albumin (a recrystallization-purified product of >99% purity; Sigma).
Differentiation into nerve progenitor cells was analyzed as described previously (Watanabe et al., Nature Neuroscience, 2005) by FACS using Sox1-GFP ES cells that emit fluorescence when differentiated into nerves. The FACS was performed using FACSAria (Beckton Dickenson) and its data were analyzed using FACSDiva software. Nerve differentiation was also analyzed by a fluorescent immunostaining method using EB5 cells.

SFEBq culture product = experiment: qPCR of marker genes in the SFEBq culture product with insulin; assay type: cell-based, mouse; settings: insulin treatment
Experimental: The expression of a marker gene is analyzed by, for example, performing quantitative PCR using the 7500 Fast Real-Time PCR System (Applied Biosystems) in accordance with the manufacturer's instructions, and normalizing the obtained data by the expression of GAPDH. The method of quantitative PCR is obvious to those skilled in the art. Alternatively, cells may be manipulated to allow the desired marker gene to be expressed as a fusion protein of a marker gene product and GFP or the like (knocking-in). It is also possible to detect the expression of the protein using an antibody specific for a marker gene product.
as §1

Bf1/Venus-mES cells [6] = experiment: Cerebral site-specific differentiation of re-aggregated SFEBq cerebral progenitors with secreted pattern formation factors (fluorescent immunostaining); assay type: cell-based, mouse; settings: BMP4 0.5 ng/ml
Experimental: Bf1/Venus-mES cells were cultured for differentiation by the SFEBq method for 7 days, after which the resulting Venus-positive cells were separated by FACS, and rapid re-aggregation (5000 cells/well) was performed using a non-cell-adhesive 96-well culture plate. Secreted pattern formation factors such as Fgf 8b (50 ng/ml), the Fgf receptor inhibitor FGFR3-Fc (50 ng/ml), Wnt3a (20 ng/ml), and BMP4 (0.5 ng/ml) were added thereto, and the cells were cultured for 3 to 12 days. The expression of cerebral part-specific markers was analyzed by a fluorescent immunostain method (FIG. 7A, view A).

[7] = 7 μg/ml insulin, added on day 2
[8] = room temperature, artificial cerebrospinal fluid
[9] = 10 μM treatment after 12 days of differentiation culture

Molecule: O=c1[nH]c2ccccc2n1C1CCN(Cc2ccc(-c3nc4cc5[nH]cnc5cc4nc3-c3ccccc3)cc2)CC1 [Akt inhibitor VIII, 1,3-Dihydro-1-(1-((4-(6-phenyl-1H-imidazo[4,5-g]quinoxalin-7-yl)phenyl)methyl)-4-piperidinyl)-2H-benzimidazol-2-one]
- Rx expression without addition of Akt inhibitor VIII, relative to culture with 2 μM from day 9 (Human ES cells (KhES #1)): 50%
- Vax1 expression without addition of Akt inhibitor VIII, relative to culture with 2 μM from day 9 (Human ES cells (KhES #1)): 25%
- Rx-GFP positivity rate recovered in the presence of insulin (Rx-GFP ES cells [1]; [7]): ~28%

Molecule: N#Cc1cc2[nH]c(=O)c(=O)[nH]c2cc1[N+](=O)[O-] [CNQX]
- repeated synchronized Ca++ elevations over a long distance (Ca++ oscillation) [2, 8]: inhibited

Molecule: CC1=C2C[C@H]3[C@@H](CC=C4C[C@@H](O)CC[C@@]43C)[C@@H]2CC[C@]12O[C@@H]1C[C@H](C)CN[C@H]1[C@H]2C [Cyclopamine, 11-Deoxojervine]
- expression of dorsal/ventral hypothalamus markers compared with the Shh treatment (Rx-GFP ES cells [3]): reverse result

Molecule: C[C@H](NC(=O)Cc1cc(F)cc(F)c1)C(=O)N[C@H](C(=O)OC(C)(C)C)c1ccccc1 [DAFT]
- cells differentiated into Reelin-positive Cajal-Retzius cells (Bf1/Venus-mES cells [4]; 10 μM treatment after 9 days of differentiation culture): more than 50%
- Reelin-positive cells (Bf1/Venus-mES cells [4]; [9]): less than 10%
- cells differentiated into Ctip2/Emx1-positive cerebral cortical neurons specific for the 5th layer (Bf1/Venus-mES cells [4]; [9]): more than 60%

Molecule: Cl.O=c1cc(N2CCOCC2)oc2c(-c3ccccc3)cccc12 [LY294002, 2-(4-morpholinyl)-8-phenyl-1(4H)-benzopyran-4-one hydrochloride]
- Rx-GFP positivity rate recovered in the presence of insulin (Rx-GFP ES cells [1]; [7]): about 20%

Molecule: COc1cccc(-c2cc(=O)c3ccccc3o2)c1N [PD98059]
- antagonism of the inhibitory effect of insulin on differentiation into hypothalamic progenitor cells (Rx-GFP ES cells [1]; 7 μg/ml insulin, PD98059 0.5-10 μM, added on day 2): did not antagonize; also recorded: not noted

Molecule: c1ccc2c(Oc3nc(Nc4ccc(N5CCOCC5)cc4)c4ncn(C5CCCCC5)c4n3)cccc2c1 [Purmorphamine, 2-(1-Naphthoxy)-6-(4-morpholinoanilino)-9-cyclohexylpurine]
- expression of dorsal/ventral hypothalamus markers compared with the Shh treatment (Rx-GFP ES cells [3]; Cyclopamine treatment, Purmorphamine 0.5 μM in place of Shh): same effects as with Shh

Molecule: NC(=O)CC[C@H](N)C(=O)O [glutamine]
- Ca++ elevations synchronized or not synchronized with surrounding cells [2, 8]: enhanced

Molecule: O=[Se](O)O [sodium selenite]
- percentage of Rx-GFP (Rx-GFP ES cells [1]; concentration in differentiation medium increased from 0.017 mg/L to 0.025 mg/L, control 50-70%): about 80%

Molecule: NC1=N[C@H](O)[C@H]2[C@H]3O[C@]4(O)O[C@@H]([C@@H](O)[C@@]2(N1)[C@@H]4O)[C@]3(O)CO [tetrodotoxin]
- Ca++ elevations synchronized or not synchronized with surrounding cells [2]: inhibited
- repeated synchronized Ca++ elevations over a long distance (Ca++ oscillation) [2]: inhibited

Molecule: human apo-transferrin: human apo-transferrin (Sigma), medium additive
- influence of addition or non-addition on the differentiation results [5]: did not influence

Molecule: insulin: insulin added to serum-free medium
- Rx-GFP positivity rate (Rx-GFP ES cells [1]; 7 μg/ml insulin): less than 5%
- expression of Rx-GFP, time-window analysis (Rx-GFP ES cells [1]; insulin 7 μg/ml added to gfCDM on day 5 or before): suppressed
- effect on Rx-GFP+%, time-window analysis (Rx-GFP ES cells [1]; insulin 7 μg/ml present after day 4): decreased substantially
- effect on Rx-GFP+%, time-window analysis (Rx-GFP ES cells [1]; insulin 7 μg/ml present during the first 3 days): almost no inhibitory effect
- expression of a caudal marker (SFEBq culture product): induced moderately
- expression of the most rostral CNS marker (SFEBq culture product): suppressive effect

B1: Wnt3a: protein belonging to the Wnt family, Wnt signal promoter (protein, UniProt P56704 19-352, looked up)
Protein Wnt-3a: SYPIWWSLAVGPQYSSLGSQPILCASIPGLVPKQLRFCRNYVEIMPSVAEGIKIGIQECQHQFRGRRWNCTTVHDSLAIFGPVLDKATRESAFVHAIASAGVAFAVTRSCAEGTAAICGCSSRHQGSPGKGWKWGGCSEDIEFGGMVSREFADARENRPDARSAMNRHNNEAGRQAIASHMHLKCKCHGLSGSCEVKTCWWSQPDFRAIGDFLKDKYDSASEMVVEKHRESRGWVETLRPRYTYFKVPTERDLVYYEASPNFCEPNPETGSFGTRDRTCNVSSHGIDGCDLLCCGRGHNARAERRREKCRCVFHWCCYVSCQECTRVYDVHTCK
- cells expressing Otx2 and Lmx1a (hem area markers) (Bf1/Venus-mES cells [6]; Wnt3a 20 ng/ml): 2-30%

B2: BMP4: protein belonging to the BMP family, BMP signal promoter (protein, UniProt P12644 293-408, looked up)
Bone morphogenetic protein 4: SPKHHSQRARKKNKNCRRHSLYVDFSDVGWNDWIVAPPGYQAFYCHGDCPFPLADHLNSTNHAIVQTLVNSVNSSIPKACCVPTELSAISMLYLDEYDKVVLKNYQEMVVEGCGCR
- differentiation of choroidal tissue (TTR-positive) (Bf1/Venus-mES cells [6]): noted
